# Entries after “also recorded” stand apart in the source; their conditions may differ. Like-named read-outs stand apart in the source and are kept apart here. Where a SMILES comes first, the peptide text is derived from it. [ ]: non-standard residue; d: D form. The star is where a group is joined. Dolaproine = CO[C@@H]([C@@H]1CCCN1)[C@@H](C)C(=O)O; Dil = CC[C@H](C)[C@H](NC)[C@@H](CC(=O)O)OC; X1 = C[C@@H](N*)[C@@H](O)c1ccccc1; NMeV = CN[C@H](C(=O)O)C(C)C
# Experiments:
# [1] = Intravenous pharmacokinetics in rat; assay type: in vivo; conditions: for AUC(0-inf) / half-life / clearance / Vd: rat, in vivo, iv; for clearance: read-out: CLp; for Vd: read-out: Vss; for Plasma concentration of released payload: rat plasma after 0.5 mg/kg i.v. of the parent SMDC (4, 5, 6), LLOQ < 0.0005 µM
# Procedure: Pharmacokinetic properties of SMDCs and their respective payloads were characterized in rats. Briefly, male Wistar rats (n = 3) were given a 0.5 mg/kg dose of SMDC formulated in plasma/DMSO (99:1) intravenously (i.v.) via tail vein. Blood was collected at pre-dose, 2, 5, 15, 30, 45, 60 min, 2, 4, 7, 24 h post-dose and then processed to plasma. Plasma was frozen at < −20°C until sample analysis. Plasma samples were analyzed for concentrations of SMDCs and their respective released payloads by LC-MS/MS.
# Pharmacokinetics of SMDCs and their respective payloads from in vivo studies were determined using mean concentration-time profiles. All pharmacokinetic parameters were calculated by non-compartmental methods as previously described ([Perrier and Gibaldi, 1982]).
# MX-1 TNBC xenograft = assay: In vivo efficacy in MX-1 TNBC xenograft model; conditions: 20 mg/kg i.v.
# Procedure: For in vivo efficacy studies, immunocompromised mice were inoculated subcutaneously with 1x10^6 MX-1 TNBC cells in 50% Matrigel/50% Media on day 0. Treatment was started at a mean tumor volume of 75 mm^3 in the MX-1 model (n = 12/group: Compound 2, 20 mg/kg i. v. in a 2 days on/5 days off and in a once weekly (QW) schedule. VIP236, 20 mg/kg i. v. QW). Tumor and body weight were measured at least twice weekly.
# Stability in rat plasma = assay type: in vitro ADME; conditions: 37 °C
# Procedure: The SMDC compounds 2, 3, 4, 5 and 6 (1 mg) were dissolved in acetonitrile/DMSO (1:1, 0.5 mL). While vortexing, 20 µL of this solution was added to 1 mL rat plasma at 37 °C. The incubation was stopped at respective time intervals by adding acetonitrile/buffer pH 3 (80:20) and the test compounds and formation of degradation products were analyzed by LC and LC/MS.
# [2] = Stability in human plasma; assay type: in vitro ADME; conditions: 37 °C
# [3] = target: T1, human neutrophil elastase (Homo sapiens, UniProt P08246); assay: Human neutrophil elastase cleavability assay; assay type: biochemical; conditions: 5 µM SMDC, 20, 40, 60 nM NE, 1 h, 37°C
# T1 sequence (P08246 30-267): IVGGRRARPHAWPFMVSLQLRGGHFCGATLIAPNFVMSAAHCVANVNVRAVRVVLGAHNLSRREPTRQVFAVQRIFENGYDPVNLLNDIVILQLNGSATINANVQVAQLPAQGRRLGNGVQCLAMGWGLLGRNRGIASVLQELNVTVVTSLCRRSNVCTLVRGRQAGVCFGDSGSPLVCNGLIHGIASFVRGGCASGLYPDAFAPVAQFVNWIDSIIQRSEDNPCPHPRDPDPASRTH
# Procedure: For the NE cleavability assay, the SMDC test compound was added to buffer (150 mM NaCl, 10 mM CaCl2, 0.05% BSA) to a final concentration of 5 µM (0.5% DMSO). The reaction was started by adding different concentrations of human NE (0, 20, 40, 60 nM) to the reaction vials. After incubation for 1 h at 37°C, the enzymatic reaction was stopped by precipitation in 50% ACN. Subsequently, the samples were subjected to HPLC-MS analysis to determine the concentration of test compound and of its metabolite.
# [4] = Hydrolytic stability in PBS buffer at pH 7.4; assay type: physicochemical; conditions: PBS pH 7.4, 37 °C, 24 h
# Procedure: For hydrolytic stability measurement, compounds 2, 3, 4, 5 and 6 (0.15 mg) were dissolved in acetonitrile/DMSO (4:1, 0.5 mL) and 1 mL of PBS buffer at pH 7.4 was then added. The sample solution was analyzed by HPLC to determine the amount of the test compound and the formation of degradation products over a period of 24 h at 37 °C.
# 786-O (human RCC) cells = assay: In vitro cytotoxicity, MTT assay, in absence or presence of neutrophil elastase; assay type: cell-based; conditions: Homo sapiens, 786-0, 72 h exposure
# Procedure: (§1) 786-O (human RCC), HT-29 (human CRC), NCI-H292 (human NSCLC), NCI-H69 (human SCLC), MX-1 (human TNBC), and SUM149PT (human IBC) cells were acquired from ATCC and cultured according to the provider’s instructions.
# (§2) The in vitro cytotoxicity of the SMDCs in comparison to the respective payloads was tested in a panel of cancer cell lines after a 72 h continuous exposure in presence or absence of 20 nM neutrophil elastase using MTT assays (ATCC). IC50 values were determined as the concentration of compound required for 50% inhibition of cell viability.
# HT-29 (human CRC) cells = assay: as above; assay type: cell-based; conditions: Homo sapiens, HT-29, 72 h exposure
# Procedure: as §1, §2
# [5] = tested on: SUM149PT (human IBC) cells; assay: as above; assay type: cell-based; conditions: Homo sapiens, SUM149PT, 72 h exposure
# Procedure: as §1, §2
# [6] = tested on: NCI-H292 (human NSCLC) cells; assay: as above; assay type: cell-based; conditions: Homo sapiens, NCI-H292, 72 h exposure
# Procedure: as §1, §2
# [7] = Caco-2 cell permeability flux assay; assay type: in vitro ADME; conditions: human, 37 °C, mean of at least two assays
# Procedure: The cell permeability of the payloads released by the SMDCs 5 and 6, namely, compounds 10 and 11 were investigated with an in vitro flux assay using Caco-2 cells ([Troutman and Thakker, 2003]). The compounds were dissolved in HEPES buffer and applied (in triplicates) to the cells either on the apical (A) or basolateral (B) side of the Caco-2 monolayer at a final concentration of 2 μM. Before and after incubation for 2 h at 37 °C, samples were taken from both compartments and analyzed by LC-MS/MS. The apparent permeability coefficient (Papp) was calculated for both the apical to basolateral (A → B) and the basolateral to apical (B → A) direction as described by Schwab et al. ([Schwab et al., 2003]).
# [8] = male Wistar rats, 0.5 mg/kg SMDC i.v., plasma
# [9] = with 20 nM neutrophil elastase, read-out: IC50 786–0 + neutrophil elastase
# [10] = without neutrophil elastase, read-out: IC50 786–0
# [11] = with 20 nM neutrophil elastase, read-out: IC50 HT29 + neutrophil elastase
# [12] = without neutrophil elastase, read-out: IC50 HT29
# [13] = with 20 nM neutrophil elastase, read-out: IC50 SUM149 PT + neutrophil elastase
# [14] = without neutrophil elastase, read-out: IC50 SUM149PT
# [15] = with 20 nM neutrophil elastase, read-out: IC50 NCI-H292 + neutrophil elastase
# [16] = without neutrophil elastase, read-out: IC50 NCI-H292
SMILES,"AUC(0-inf) [1, 8] [µM·h]","half-life [1, 8] [h]","clearance [1, 8] [mL/min/kg]","Vd [1, 8] [L/kg]",Stability in rat plasma (Stability in rat plasma),Stability in human plasma [2],Cleavage by human NE [3],Stability in buffer pH 7.4 [4],IC50 (786-O (human RCC) cells; [9]) [nM],IC50 (786-O (human RCC) cells; [10]) [nM],IC50 (HT-29 (human CRC) cells; [11]) [nM],IC50 (HT-29 (human CRC) cells; [12]) [nM],"IC50 [5, 13] [nM]","IC50 [5, 14] [nM]","IC50 [6, 15] [nM]","IC50 [6, 16] [nM]",Plasma concentration of released payload [1],"Papp A→B at 2 h, 2 μM [7] [×10⁻⁶ cm/s]","Papp B→A at 2 h, 2 μM [7] [×10⁻⁶ cm/s]","efflux ratio at 2 h, 2 μM [7]",also measured
CCCNC(=O)Nc1cccc(S(=O)(=O)Nc2cccc([C@@H](CC(=O)O)NC(=O)Nc3ccc(NC(=O)NCCN(C)CCN(C)CCN(C)CC(=O)N[C@@H](CC(N)=O)C(=O)N4CCC[C@H]4C(=O)N[C@H](C(=O)O[C@]4(CC)C(=O)OCc5c4cc4n(c5=O)Cc5c-4nc4ccccc4c5CC)C(C)C)cc3)c2)c1 [Compound 2],2.52 ± 0.61,8.31 ± 5.49,2.33 ± 0.44,0.627 ± 0.344,highly stable,Very small fractions of a degradation product; also recorded: highly stable,essentially completely cleaved,Very small fractions of a degradation product; also recorded: highly stable,,,,,,,,,,,,,"payload/parent AUC ratio ([1]; male Wistar rats, 0.5 mg/kg SMDC i.v., plasma, molar basis): 0.0105; Tumor growth MX-1 (MX-1 TNBC xenograft; 2 days on/5 days off): significant tumor regression; also recorded: complete tumor regression; Body weight loss (MX-1 TNBC xenograft; 2 days on/5 days off, MX-1 model): no significant body weight loss; Tumor growth MX-1 (MX-1 TNBC xenograft; once weekly): tumor stasis; Body weight changes (MX-1 TNBC xenograft; MX-1 model): minor"
CCCNC(=O)Nc1cccc(S(=O)(=O)Nc2cccc([C@@H](CC(=O)O)NC(=O)Nc3ccc(NC(=O)NCCOCCOCCOCCC(=O)N[C@@H](CC(N)=O)C(=O)N4CCC[C@H]4C(=O)N[C@H](C(=O)NCCCN(C(=O)CO)[C@@H](c4cc(-c5cc(F)ccc5F)cn4Cc4ccccc4)C(C)(C)C)C(C)C)cc3)c2)c1 [Compound 5],1.09 ± 0.49,4.88 ± 4.37,5.5 ± 2.35,0.6 ± 0.515,highly stable,highly stable,very slow,highly stable,,,,,,,,,,,,,
"CCc1c2c(nc3ccccc13)-c1cc3c(c(=O)n1C2)COC(=O)[C@]3(O)CC [Compound 7, 7-ethyl camptothecin, reference compound]",,,,,,,,,3.2,3.7,19,22,4.2,3.8,4.6,3.8,,,,,
"CC[C@H](C)[C@@H]([C@@H](CC(=O)N1CCC[C@H]1[C@H](OC)[C@@H](C)C(=O)N[C@H](C)[C@@H](O)c1ccccc1)OC)N(C)C(=O)[C@@H](NC(=O)[C@@H](NC)C(C)C)C(C)C [Compound 9, N-methyl-L-valyl-N-[(3R,4S,5S)-1-{(2S)-2-[(1R,2R)-3-{[(1S,2R)-1-hydroxy-1-phenylpropan-2-yl]amino}-1-methoxy-2-methyl-3-oxopropyl]pyrrolidin-1-yl}-3-methoxy-5-methyl-1-oxoheptan-4-yl]-N-methyl-L-valinamide, reference compound] (H-[NMeV]V[Dil][Dolaproine]-X1)",,,,,,,,,4.9,5.9,0.55,0.58,0.14,0.18,0.36,0.4,largely below the lower limit of quantitation,,,,
"CC(C)(C)[C@H](c1cc(-c2cc(F)ccc2F)cn1Cc1ccccc1)N(CCCN)C(=O)CO [Compound 10, N-(3-aminopropyl)-N-{(1R)-1-[1-benzyl-4-(2,5-difluorophenyl)-1H-pyrrol-2-yl]-2,2-dimethylpropyl}-2-hydroxyacetamide]",,,,,,,,,2.5,2.5,0.41,0.41,0.17,0.33,0.27,0.46,largely below the lower limit of quantitation,0.38,18,129,
"CNC(=O)[C@@H](N)CCN(C(=O)CO)[C@@H](c1cc(-c2cc(F)ccc2F)cn1Cc1ccccc1)C(C)(C)C [Compound 11, (2S)-2-amino-4-[{(1R)-1-[1-benzyl-4-(2,5-difluorophenyl)-1H-pyrrol-2-yl]-2,2-dimethylpropyl}(glycoloyl)amino]-N-methylbutanamide]",,,,,,,,,6,6,1.4,1.2,0.53,0.31,0.97,1.8,largely below the lower limit of quantitation,3.48,30.3,8.7,

# From paper PMC10943695, “Neutrophil elastase as a versatile cleavage enzyme for activation of αvβ3 integrin-targeted small molecule drug conjugates with different payload classes in the tumor microenvironment” (Frontiers in Pharmacology, 2024)
